Experimental data from PubChem BioAssay (NCI).
“And” between values parts separate entries of the source, which are not always exact repeats. Equal values may be shown once.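 Results reflect a 48-hour exposure of cells in 96-well plates to compound at five concentrations. GI50 marks 50% less growth. TGI marks complete inhibition of growth.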

Assays:
Assay in all cases: inhibition of tumour cell growth, NCI panel, 48 h
ACHN renal = system: ACHN renal
COLO 205 colon = system: COLO 205 colon
HCT-116 colon = system: HCT-116 colon
HL-60(TB) leukemia = system: HL-60(TB) leukemia
IGROV1 ovarian = system: IGROV1 ovarian
NCI-H460 lung = system: NCI-H460 lung
SF-539 CNS = system: SF-539 CNS
SK-MEL-5 melanoma = system: SK-MEL-5 melanoma
U251 CNS = system: U251 CNS
NCI-H23 lung = system: NCI-H23 lung

Structure (SMILES) | TGI (ACHN renal) | TGI (COLO 205 colon) [µM] | TGI (HCT-116 colon) [µM] | TGI (HL-60(TB) leukemia) [µM] | TGI (IGROV1 ovarian) | TGI (NCI-H460 lung) | TGI (SF-539 CNS) | TGI (SK-MEL-5 melanoma) [µM] | TGI (U251 CNS) [µM] | GI50 (ACHN renal) [µM] | GI50 (COLO 205 colon) [µM] | GI50 (HCT-116 colon) [µM] | GI50 (HL-60(TB) leukemia) | GI50 (IGROV1 ovarian) [µM] | GI50 (NCI-H23 lung) [µM] | TGI (NCI-H23 lung) [µM] | GI50 (NCI-H460 lung) | GI50 (SF-539 CNS) [µM] | GI50 (SK-MEL-5 melanoma) [µM] | GI50 (U251 CNS) [µM]
CCOC(=O)NC/C=C/CO | > 100 µM | > 100 | > 100 | > 100 | > 100 µM | > 100 µM | > 100 µM | > 100 | > 100 | – | – | – | – | – | – | – | – | – | – | –
COc1cc(-c2nn(-c3cccc(NC(=O)c4cccc(C(F)(F)F)c4)c3)cc2-c2ccncc2)ccc1Cl | > 50 µM | 5.17 | > 50 | > 50 | > 50 µM | 9.27 µM | 2.3 µM | 2.47 | > 50 | 1.89 | 1.64 | 1.67 | 2.02 µM | 1.83 | 1.56 | 32.5 | 1.45 µM | 0.895 | 0.978 | 1.62
O=C(/C=C/c1ccc(OCC(=O)N2CCN(c3ccccc3)CC2)cc1)c1ccccc1 | > 89.6 µM | > 100 | > 56.6 | 30.8 | > 100 µM | > 87 µM | 46.8 µM | > 53 | 38 | – | – | – | – | – | – | 85.6 | – | – | – | –
COC(=O)/C(=C/c1ccc(OC)cc1)c1cc(OC)c(OC)c(OC)c1 | > 100 µM | 13.7 | 55.3 | 3.06 | > 100 µM | 45.9 µM | 6.96 µM | > 39.3 | 39 | – | – | – | – | – | – | 26.8 | – | – | – | –
Cc1c2cc[n+](C)cc2c(C)c2c1[nH]c1ccc(Oc3ccccc3)cc12 | > 38.4 µM and 19 µM | 5.25 | > 100 | – | 33.5 µM and 24.5 µM | 14 µM and 11.4 µM | 20.2 µM and 21 µM | – | > 100 | – | – | – | 2.18 µM and 4.06 µM | – | 1.73 | – | 1.64 µM and 1.06 µM | – | – | –
COc1cc2c(cc1OCCCN1CCN(CCCn3c4ccccc4c4ccccc43)CC1)N=C[C@@H]1CCCN1C2=O | 1.27 µM | 0.235 | 3.93 | – | – | 0.916 µM | 0.49 µM | 0.472 | 1.2 | 0.43 | 0.0749 | 0.156 | 0.0249 µM | – | 0.122 | 0.599 | 0.23 µM | 0.225 | 0.202 | 0.0985
COc1cccc(OC)c1/C=N\N1C(=O)c2ccccc2C1=O | > 100 µM | – | 87.6 | 79.8 | > 100 µM | > 100 µM | 52.4 µM | > 100 | – | – | – | – | – | – | – | > 100 | – | – | – | –
O=C(Nc1cccc(C(F)(F)F)c1)Nc1ccc(OCc2nnc(-c3ccccc3)o2)c(F)c1 | 12.3 µM | 10.6 | 16.5 | 6.4 | 26.6 µM | 15.3 µM | 23.2 µM | 21.3 | 19.6 | 2.92 | 2.47 | 3.02 | 2.58 µM | 5.5 | 4.49 | 24.5 | 3.61 µM | 5.1 | 5.71 | 3.73
CC(C)C12CCC3(CCC4C(C)(C(=O)O)CCCC4(C)C3C1)C(CN)C2 (stereo not drawn) | > 100 µM | 33.2 | 34.2 | – | > 100 µM | 52.3 µM | 78.9 µM | 86.2 | > 100 | – | – | – | – | – | – | 72.1 | – | – | – | –
COc1cc(/C=C/C(=O)c2c(-c3ccc(Cl)cc3)nc3sc(C)nn23)cc(OC)c1OC | > 100 µM | > 100 | > 100 | 40.6 | > 100 µM | > 100 µM | > 100 µM | 15.6 | > 100 | 20.8 | 60.8 | 15.7 | 5.94 µM | 70.1 | 24.8 | > 100 | > 100 µM | > 100 | 3.1 | 17.1
COC(=O)C(NC(=O)c1ccccc1)c1ccc(OC)c(I)c1 (stereo not drawn) | > 100 µM | > 100 | > 100 | > 100 | > 100 µM | > 100 µM | > 100 µM | > 100 | > 100 | 63.8 | 80.8 | 33.7 | 41.6 µM | 53.2 | – | – | 67.6 µM | > 100 | 44.2 | 65.6
O=C(/C=C/N1CCN(c2cccc(Cl)c2)CC1)c1ccc(Cl)cc1 | > 100 µM | > 100 | 70.4 | – | – | > 100 µM | 47.7 µM | 31.5 | > 100 | 44.9 | 36.2 | 27.1 | – | – | 39 | > 100 | 33.6 µM | 22.8 | 16.5 | 42.1
COC(=O)C1=C(C)N(NC(=O)Nc2ccccc2)C2(N)N(NC(=O)Nc3ccccc3)C(C)=C(C(=O)OC)C12C(=O)OC (stereo not drawn) | > 100 µM | > 100 | > 100 | – | 55.5 µM | > 100 µM | – | – | > 100 | – | – | – | – | – | – | > 100 | – | – | – | –
O=C1COc2cc3c(cc2N1)SCC(=O)N3 | – | > 100 | > 100 | > 100 | > 100 µM | – | > 100 µM | > 100 | – | – | – | – | – | – | – | > 100 | – | – | – | –
Cc1cc(C2(c3cc(C)c(O)c4ncccc34)OC(=O)c3ccccc32)c2cccnc2c1O | 1.17 µM and 1.45 µM | 28.5 | > 100 | – | 7.94 µM and 21.9 µM | 0.203 µM | 4.69 µM and 11.7 µM | 0.0574 | > 100 | – | 0.405 | – | – | – | 0.0145 | – | – | 0.02 | – | –
CC(=O)OCc1cc2c(s1)C(=O)c1sccc1C2=O | 0.246 µM | 3.03 | 3.38 | – | 2.79 µM | 0.322 µM | 0.285 µM | 0.0569 | 0.706 | – | – | – | – | – | – | 0.0378 | – | – | – | –
Cc1cc2c(=O)cc(-c3ccncc3)oc2c(C(=O)O)c1C | > 100 µM | > 100 | > 100 | > 100 | > 100 µM | > 100 µM | > 100 µM | – | > 100 | – | – | – | – | – | – | > 100 | – | – | – | –
N#Cc1c(N/N=C/c2c(Cl)cccc2Cl)nc(N)nc1N1CCCC1 | > 100 µM | > 100 | 16.8 | 7.04 | 97.3 µM | – | 5.58 µM | 7.11 | > 100 | 3.18 | 5.29 | 1.01 | 3.4 µM | 0.783 | 1.16 | 9.11 | – | 1.77 | 0.722 | 2.51
